Results published in PubChem BioAssay (NCI).
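Dose response: 5 concentrations. Exposure: 48 h. Format: 96-well plates. Endpoint: linear interpolation; highest concentration if not reached. TGI is the concentration that stops growth completely.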

Key:
Assay in all cases: DTP human tumour cell line panel, 48 h
KM12 colon = tested on: KM12 colon
SK-MEL-2 melanoma = tested on: SK-MEL-2 melanoma
EKVX NSCLC = tested on: EKVX NSCLC
HL-60(TB) leukemia = tested on: HL-60(TB) leukemia
T-47D breast = tested on: T-47D breast
UACC-257 melanoma = tested on: UACC-257 melanoma
SF-295 CNS = tested on: SF-295 CNS
ACHN renal = tested on: ACHN renal
HT29 colon = tested on: HT29 colon
HOP-62 NSCLC = tested on: HOP-62 NSCLC
CCRF-CEM leukemia = tested on: CCRF-CEM leukemia
MCF7 breast = tested on: MCF7 breast
SK-MEL-28 melanoma = tested on: SK-MEL-28 melanoma
OVCAR-4 ovarian = tested on: OVCAR-4 ovarian
NCI/ADR-RES ovarian = tested on: NCI/ADR-RES ovarian
NCI-H460 lung = tested on: NCI-H460 lung
NCI-H23 lung = tested on: NCI-H23 lung
SNB-75 CNS = tested on: SNB-75 CNS
TK-10 renal = tested on: TK-10 renal
A498 renal = tested on: A498 renal
SF-539 CNS = tested on: SF-539 CNS
A549 NSCLC = tested on: A549 NSCLC
CAKI-1 renal = tested on: CAKI-1 renal
U251 CNS = tested on: U251 CNS
MDA-N = tested on: MDA-N
PC-3 prostate = tested on: PC-3 prostate
786-0 renal = tested on: 786-0 renal
SW-620 colon = tested on: SW-620 colon
MDA-MB-231 breast = tested on: MDA-MB-231 breast
BT-549 breast = tested on: BT-549 breast
NCI-H522 lung = tested on: NCI-H522 lung
HS 578T breast = tested on: HS 578T breast
SNB-19 CNS = tested on: SNB-19 CNS
HCT-116 colon = tested on: HCT-116 colon
SN12C renal = tested on: SN12C renal
MALME-3M melanoma = tested on: MALME-3M melanoma
SF-268 CNS = tested on: SF-268 CNS
RPMI-8226 leukemia = tested on: RPMI-8226 leukemia
UACC-62 melanoma = tested on: UACC-62 melanoma
OVCAR-5 ovarian = tested on: OVCAR-5 ovarian
SK-OV-3 ovarian = tested on: SK-OV-3 ovarian
M14 melanoma = tested on: M14 melanoma
MOLT-4 leukemia = tested on: MOLT-4 leukemia
HCC-2998 colon = tested on: HCC-2998 colon
LOX IMVI melanoma = tested on: LOX IMVI melanoma
HOP-92 NSCLC = tested on: HOP-92 NSCLC
UO-31 renal = tested on: UO-31 renal
SK-MEL-5 melanoma = tested on: SK-MEL-5 melanoma
HCT-15 colon = tested on: HCT-15 colon
OVCAR-3 ovarian = tested on: OVCAR-3 ovarian
IGROV1 ovarian = tested on: IGROV1 ovarian
DU-145 prostate = tested on: DU-145 prostate
OVCAR-8 ovarian = tested on: OVCAR-8 ovarian
RXF 393 renal = tested on: RXF 393 renal
MDA-MB-435 = tested on: MDA-MB-435
K-562 leukemia = tested on: K-562 leukemia

Measured: TGI

O=C(O)/C(=C/c1ccccc1)c1ccccc1
> 100 µM: all assays above
